Like-named read-outs stand apart in the source and are kept apart here.
Molecular target: TMPRSS2 (Homo sapiens, UniProt O15393)
Test: Fluorogenic kinetic enzyme inhibitor assay, TMPRSS2
Type: biochemical
Parameters: purchased Cusabio Technology CSB-YP023924HU

Sequence of TMPRSS2 (O15393 106-492 limits assumed): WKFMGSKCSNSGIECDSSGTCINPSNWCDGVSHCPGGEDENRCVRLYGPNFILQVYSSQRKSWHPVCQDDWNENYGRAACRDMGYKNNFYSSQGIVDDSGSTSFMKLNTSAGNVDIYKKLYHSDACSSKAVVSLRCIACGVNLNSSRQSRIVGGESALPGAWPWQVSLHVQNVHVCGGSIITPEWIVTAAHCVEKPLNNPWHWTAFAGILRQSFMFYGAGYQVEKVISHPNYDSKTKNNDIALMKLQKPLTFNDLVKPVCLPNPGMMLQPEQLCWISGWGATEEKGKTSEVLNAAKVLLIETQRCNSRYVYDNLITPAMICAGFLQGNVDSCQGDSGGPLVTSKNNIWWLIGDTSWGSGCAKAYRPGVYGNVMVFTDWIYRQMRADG

Row | IC50 (read-out: TMPRSS2 IC50) [nM] | Structure (SMILES) | IC50 [nM]
1 | 0.167 | N=C(N)NCCC[C@H](NC(=O)[C@H](CCc1ccc(O)cc1)NC(=O)OCC1c2ccccc2-c2ccccc21)C(=O)c1nc2ccccc2s1 [MF1163, (S)-3-(p-hydroxyphenyl)-1-[N-(S)-1-[(1,3-benzothiazol-2-yl)carbonyl]-4-guanidinobutylcarbamoyl] propyl (9H-fluoren-9-yl)methanecarbamate] | –
2 | 458 | CC(C)CC[C@H](NC(=O)OCC1c2ccccc2-c2ccccc21)C(=O)N[C@@H](CCCNC(=N)N)C(=O)c1nc2ccccc2s1 [MF1164, (S)-4-methyl-1-[N-(S)-1-[(1,3-benzothiazol-2-yl)carbonyl]-4-guanidinobutylcarbamoyl] pentyl (9H-fluoren-9-yl)methanecarbamate] | –

Second part, the molecule before the results:

Row | Structure (SMILES) | IC50 (read-out: TMPRSS2 IC50) [nM] | IC50 [nM]
3 | C=CCOC(=O)CC[C@H](NC(=O)[C@@H]1Cc2ccccc2N1C(C)=O)C(=O)N[C@@H](Cc1ccc(F)cc1)C(=O)N[C@H](CCCNC(=N)N)C(=O)c1nc2ccccc2s1 [MF1067A, allyl (S)-4-[(S)-1-acetyl-2-indolinylcarbonylamino]-4-[N-(S)-2-(p-fluorophenyl)-1-[N-(R)-1-[(1,3-benzothiazol-2-yl)carbonyl]-4-guanidinobutylcarbamoyl]ethylcarbamoyl]butyrate] | – | 0.431
4 | C=CCOC(=O)CC[C@H](NC(=O)[C@@H]1Cc2ccccc2N1C(C)=O)C(=O)N[C@@H](Cc1ccc(F)cc1)C(=O)N[C@@H](CCCNC(=N)N)C(=O)c1nc2ccccc2s1 [MF1067B, allyl (S)-4-[(S)-1-acetyl-2-indolinylcarbonylamino]-4-[N-(S)-2-(p-fluorophenyl)-1-[N-(S)-1-[(1,3-benzothiazol-2-yl)carbonyl]-4-guanidinobutylcarbamoyl]ethylcarbamoyl]butyrate] | – | 0.2
5 | CC(=O)NCC(=O)N[C@@H](CCC(N)=O)C(=O)N[C@@H](Cc1ccccc1)C(=O)N[C@H](CCCNC(=N)N)C(=O)c1nc2ccccc2s1 [MM3122-1, N-[(S)-1-[N-(R)-1-[(1,3-benzothiazol-2-yl)carbonyl]-4-guanidinobutylcarbamoyl]-2-phenylethyl](S)-2-[(acetylaminomethyl)carbonylamino]glutaramide] | 6.46 | –
6 | CC(=O)N[C@@H](CCCCNC(=N)N)C(=O)N[C@@H](Cc1cncn1COCc1ccccc1)C(=O)N[C@@H](CCC(C)C)C(=O)N[C@H](CCCNC(=N)N)C(=O)c1nc2ccccc2s1 [MM4031-1, N-[(R)-1-[(1,3-benzothiazol-2-yl)carbonyl]-4-guanidinobutyl](S)-2-[(S)-2-[(S)-1-acetylamino-5-guanidinopentylcarbonylamino]-3-{1-[(benzyloxy)methyl]-5-imidazolyl}propionylamino]-5-methylhexanamide] | 7.54 | –
7 | CC(=O)N[C@@H](CCCCNC(=N)N)C(=O)N[C@@H](Cc1cncn1COCc1ccccc1)C(=O)N[C@@H](CCC(C)C)C(=O)N[C@@H](CCCNC(=N)N)C(=O)c1nc2ccccc2s1 [MM4031-2, N-[(S)-1-[(1,3-benzothiazol-2-yl)carbonyl]-4-guanidinobutyl](S)-2-[(S)-2-[(S)-1-acetylamino-5-guanidinopentylcarbonylamino]-3-{1-[(benzyloxy)methyl]-5-imidazolyl}propionylamino]-5-methylhexanamide] | 9.39 | –

Reference: patent US20250171495A1, “MUTLI-TARGETED SERINE PROTEASE INHIBITORS FOR TREATMENT OF CANCER AND VIRAL INFECTION” (Washington University, priority 2023, published 2025)
